Source: US11236092B2, “Spiro-condensed pyrrolidine derivatives as deubiquitylating enzymes (DUB) inhibitors” (MISSION THERAPEUTICS LIMITED, priority 2016, dated 2022)

These substances were tested against Cezanne 1 (Homo sapiens (Human), UniProt Q6GQQ9) (assay: Cezanne 1 biochemical IC50 assay (fluorescence polarisation)). Details: FLAG-Cezanne 1; enzyme and compound incubated 30 min at room temp; 50 nM TAMRA labelled peptide linked to ubiquitin as substrate; read after 2 hr; read-out: IC50 range.
Cezanne 1, sequence (Q6GQQ9 whole entry): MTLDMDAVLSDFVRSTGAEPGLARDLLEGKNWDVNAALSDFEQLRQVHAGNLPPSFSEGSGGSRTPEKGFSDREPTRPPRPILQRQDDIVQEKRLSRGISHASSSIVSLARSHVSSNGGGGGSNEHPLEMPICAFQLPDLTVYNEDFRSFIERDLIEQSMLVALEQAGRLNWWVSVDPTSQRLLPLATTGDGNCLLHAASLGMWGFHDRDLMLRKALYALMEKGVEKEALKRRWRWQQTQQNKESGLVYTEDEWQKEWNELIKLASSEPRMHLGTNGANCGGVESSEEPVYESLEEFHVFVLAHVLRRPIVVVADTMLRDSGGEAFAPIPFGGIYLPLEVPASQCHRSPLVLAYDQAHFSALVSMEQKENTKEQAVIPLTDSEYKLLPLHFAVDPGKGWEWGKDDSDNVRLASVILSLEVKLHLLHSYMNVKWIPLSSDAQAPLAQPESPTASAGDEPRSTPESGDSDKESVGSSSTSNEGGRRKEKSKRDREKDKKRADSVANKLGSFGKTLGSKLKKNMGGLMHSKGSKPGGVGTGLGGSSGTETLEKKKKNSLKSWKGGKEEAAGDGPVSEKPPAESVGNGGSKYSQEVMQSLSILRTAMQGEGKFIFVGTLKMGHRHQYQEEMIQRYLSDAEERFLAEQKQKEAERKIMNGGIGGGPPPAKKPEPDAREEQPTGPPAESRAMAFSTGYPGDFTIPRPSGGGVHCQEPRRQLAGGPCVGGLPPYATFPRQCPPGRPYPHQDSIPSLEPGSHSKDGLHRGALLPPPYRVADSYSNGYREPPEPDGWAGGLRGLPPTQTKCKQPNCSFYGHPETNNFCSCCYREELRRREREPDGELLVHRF
Procedure: Expression and Purification of Cezanne 1
The Cezanne 1 construct was PCR amplified and cloned into a pFLAG-CMV-6c vector (Sigma-Aldrich) with an N-terminal FLAG tag. HEK293T cells were transfected with FLAG-Cezanne 1 using TransIT-LT1 transfection reagent (Mirus) according to the manufacturer's instructions. Cells were harvested 48 hours after transfection. […] The resin was washed two times with low salt buffer and one time with high salt buffer (20 mM Tris, pH 7.5, 500 mM NaCl, 0.5 mM EDTA, 5 mM beta-mercaptoethanol, protease inhibitors (complete mini, Roche) and phosphatase inhibitors (PhosSTOP mini, Roche). To elute the bound Cezanne 1, elution buffer (10 mM Tris, pH 7.5, 150 mM NaCl, 0.5 mM EDTA, 10% glycerol, 0.5% NP40, 5 mM beta-mercaptoethanol, 0.15 mg/ml 3X FLAG peptide (Sigma-Aldrich)) was added to the resin and incubated at 4° C. for 2.5 hours while rotating. The resin was centrifuged at 4000 rpm for 30 seconds, and the supernatant containing purified FLAG-Cezanne 1 was removed and stored at −80° C.
Cezanne 1 Biochemical IC50 Assay
Dilution plates were prepared at 21 times the final concentration (2100 μM for a final concentration of 100 μM) in 50% DMSO in a 96-well polypropylene V-bottom plate (Greiner #651201). A typical 8-point dilution series to be 100, 30, 10, 3, 1, 0.3, 0.1, 0.03 μM final. Reactions were performed in duplicate in black 384 well plates (small volume, Greiner 784076) in a final reaction volume of 21 μl. Either 1 μl of 50% DMSO or diluted compound was added to the plate. Cezanne 1 was diluted in reaction buffer (40 mM Tris, pH 7.5, 0.005% Tween 20, 0.5 mg/ml BSA, 5 mM—beta-mercaptoethanol) to the equivalent of 0.005 μl/well and 10 μl of diluted Cezanne 1 was added to the compound. Enzyme and compound were incubated for 30 min at room temp. Reactions were initiated by the addition of 50 nM of TAMRA labelled peptide linked to ubiquitin via an iso-peptide bond as fluorescence polarisation substrate. Reactions were read immediately after addition of substrate and following a 2 hr incubation at room temperature. Readings were performed on a Pherastar Plus (BMG Labtech). λ Excitation 540 nm; λ Emission 590 nm.
“7′-(3-Cyanophenyl)-2′-oxo-l′,4′-dihydro-2′H-spiro┌pyrrolidine-3,3′-quinoline┐-1-carbonitrile [Example 9]” gave an IC50 of 1000 to 10000 nM.
“3-(1-Cyano-2′-oxo-1′4′-dihydro-2′H-spiro┌pyrrolidine-3,3′-quinolin┐-7′-yl)-N,N-dimethylbenzamide [Example 30]” was tested, and the IC50 was 100 to 1000 nM.
“7′-(2-Methylpyridin-4-yl)-2′-oxo-1′,4′-dihydro-2′H-spiro┌pyrrolidine-3,3′-quinoline┐-1-carbonitrile [Example 34]” gave an IC50 of 1000 to 10000 nM.
“2′-Oxo-7′-(4-phenoxyphenyl)-l′,4′-dihydro-2′H-spiro┌pyrrolidine-3,3′-quinoline┐-1-carbonitrile [Example 11]” showed an IC50 of 1000 to 10000 nM.
Substance “7′-(1-Methyl-1H-pyrazol-5-yl)-2′-oxo-1′,4′-dihydro-2′H-spiro┌pyrrolidine-3,3′-quinoline┐-1-carbonitrile [Example 10]” has an IC50 of 1000 to 10000 nM.
